Where two headings read alike, the source gives them in different places.
Target: T1, BRM (Homo sapiens, UniProt P51531)
T1 construct: In-Cell Western Screen of BRM Degradation in SW1573 Cells; endogenous in cells; host or cells: SW1573
Experiment: In-cell Western screen of BRM degradation in SW1573 cells (Dmax and DC50)
Type: cell-based
Settings: BRM degradation, SW1573 cells; for Dmax: read-out: Dmax (% degraded)
In short: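 SW1573, overnight cpd exposure (18-20 h), 0.1% DMSO final. PFA fix, 0.5% Triton permeabilization, block; IR secondaries at 800/680 nm. Odyssey read → Dmax, DC50.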

T1 sequence (P51531 whole entry): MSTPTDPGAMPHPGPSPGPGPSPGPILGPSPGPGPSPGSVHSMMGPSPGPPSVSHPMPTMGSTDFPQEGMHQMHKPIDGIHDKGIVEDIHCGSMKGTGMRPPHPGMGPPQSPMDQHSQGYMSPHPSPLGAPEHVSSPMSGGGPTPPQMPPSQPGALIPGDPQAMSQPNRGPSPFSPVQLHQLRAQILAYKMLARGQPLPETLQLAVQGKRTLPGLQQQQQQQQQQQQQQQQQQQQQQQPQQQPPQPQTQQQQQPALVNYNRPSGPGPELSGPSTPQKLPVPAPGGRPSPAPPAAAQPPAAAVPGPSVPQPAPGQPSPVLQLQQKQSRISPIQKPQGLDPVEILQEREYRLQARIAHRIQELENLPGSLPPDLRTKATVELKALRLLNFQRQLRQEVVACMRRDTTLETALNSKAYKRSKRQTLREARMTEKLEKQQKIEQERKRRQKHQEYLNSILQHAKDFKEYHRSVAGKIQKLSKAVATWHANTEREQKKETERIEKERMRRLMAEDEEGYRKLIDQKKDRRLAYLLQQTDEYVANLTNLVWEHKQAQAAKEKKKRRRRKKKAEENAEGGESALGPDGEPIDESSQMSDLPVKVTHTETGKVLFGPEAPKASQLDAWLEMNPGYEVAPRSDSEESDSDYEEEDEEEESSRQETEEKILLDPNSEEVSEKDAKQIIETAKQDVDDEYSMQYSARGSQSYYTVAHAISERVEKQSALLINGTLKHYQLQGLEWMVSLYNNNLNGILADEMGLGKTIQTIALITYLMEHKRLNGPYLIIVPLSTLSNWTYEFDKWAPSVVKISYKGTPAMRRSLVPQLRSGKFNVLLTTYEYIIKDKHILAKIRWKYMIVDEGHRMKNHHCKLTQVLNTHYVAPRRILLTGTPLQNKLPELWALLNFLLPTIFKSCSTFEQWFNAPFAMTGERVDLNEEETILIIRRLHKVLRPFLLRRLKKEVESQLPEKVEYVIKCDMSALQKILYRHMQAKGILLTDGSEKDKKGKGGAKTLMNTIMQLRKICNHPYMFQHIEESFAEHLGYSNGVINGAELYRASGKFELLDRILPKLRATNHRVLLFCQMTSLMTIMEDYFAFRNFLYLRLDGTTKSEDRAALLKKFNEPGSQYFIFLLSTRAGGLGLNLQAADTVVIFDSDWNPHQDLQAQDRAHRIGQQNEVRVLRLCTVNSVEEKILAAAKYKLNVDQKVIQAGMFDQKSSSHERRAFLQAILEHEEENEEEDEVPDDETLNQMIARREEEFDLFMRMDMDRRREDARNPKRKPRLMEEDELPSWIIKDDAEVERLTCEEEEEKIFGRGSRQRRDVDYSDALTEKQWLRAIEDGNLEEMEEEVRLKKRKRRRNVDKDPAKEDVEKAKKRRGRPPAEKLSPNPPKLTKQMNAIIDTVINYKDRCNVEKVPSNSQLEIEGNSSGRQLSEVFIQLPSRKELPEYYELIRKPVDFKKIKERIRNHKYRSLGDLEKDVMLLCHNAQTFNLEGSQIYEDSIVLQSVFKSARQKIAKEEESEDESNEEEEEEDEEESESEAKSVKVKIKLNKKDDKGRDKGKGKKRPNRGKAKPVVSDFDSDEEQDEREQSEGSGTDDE

| SMILES | DC50 (read-out: DC50) | Dmax | DC50 |
| --- | --- | --- | --- |
| Cc1ncsc1-c1ccc([C@H](C)NC(=O)[C@@H]2C[C@@H](O)CN2C(=O)[C@H](c2cc(N3CCC(CN4CCC(O[C@H]5C[C@H](Oc6cc(N7C8CCC7CN(c7cc(-c9ccccc9O)nnc7N)C8)ccn6)C5)CC4)CC3)no2)C(C)C)c(O)c1 [compound 696, (2S,4R)-1-((2S)-2-(3-(4-((4-((1r,3r)-3-((4-(3-(3-amino-6-(2-hydroxyphenyl)pyridazin-4-yl)-3,8-diazabicyclo[3.2.1]octan-8-yl)pyridin-2-yl)oxy)cyclobutoxy)piperidin-1-yl)methyl)piperidin-1-yl)isoxazol-5-y1)-3-methylbutanoyl)-4-hydroxy-N-((S)-1-(2-hydroxy-4-(4-methylthiazol-5-yl)phenyl)ethyl)pyrrolidine-2-carboxamide] | > 30 nM |  |  |
| Cc1ncsc1-c1ccc([C@H](C)NC(=O)[C@@H]2C[C@@H](O)CN2C(=O)[C@@H](c2cc(N3CCC(CN4CCC(O[C@H]5C[C@H](C#Cc6cc(N7C8CCC7CN(c7cc(-c9ccccc9O)nnc7N)C8)ccn6)C5)CC4)CC3)no2)C(C)C)cc1 [compound 699, (2S,4R)-1-((2R)-2-(3-(4-((4-((1r,3r)-3-((4-(3-(3-amino-6-(2-hydroxyphenyl)pyridazin-4-yl)-3,8-diazabicyclo[3.2.1]octan-8-yl)pyridin-2-yl)ethynyl)cyclobutoxy)piperidin-1-yl)methyl)piperidin-1-yl)isoxazol-5-yl)-3-methylbutanoyl)-4-hydroxy-N-((S)-1-(4-(4-methylthiazol-5-yl)phenyl)ethyl)pyrrolidine-2-carboxamide] | < 2.5 nM | > 75% |  |
| Cc1ncsc1-c1ccc([C@H](C)NC(=O)[C@@H]2C[C@@H](O)CN2C(=O)[C@H](c2cc(N3CCC(CN4CCC(O[C@H]5C[C@H](Oc6cc(N7C8CCC7CN(c7cc(-c9ccccc9O)nnc7N)C8)ccn6)C5)CC4)CC3)no2)C(C)C)cc1O [compound 700, (2S,4R)-1-((2S)-2-(3-(4-((4-((1r,3r)-3-((4-(3-(3-amino-6-(2-hydroxyphenyl)pyridazin-4-yl)-3,8-diazabicyclo[3.2.1]octan-8-yl)pyridin-2-yl)oxy)cyclobutoxy)piperidin-1-yl)methyl)piperidin-1-yl)isoxazol-5-yl)-3-methylbutanoyl)-4-hydroxy-N-((S)-1-(3-hydroxy-4-(4-methylthiazol-5-yl)phenyl)ethyl)pyrrolidine-2-carboxamide] | > 30 nM |  |  |
| Cc1ncsc1-c1ccc(C(CCCP(=O)(O)O)NC(=O)[C@@H]2C[C@@H](O)CN2C(=O)[C@H](c2cc(OCCN3CCC(O[C@H]4C[C@H](Oc5cc(N6C7CCC6CN(c6cc(-c8ccccc8O)nnc6N)C7)ccn5)C4)CC3)no2)C(C)C)cc1 (stereo partly drawn) [compound 701, (4-((2S,4R)-1-((2S)-2-(3-(2-(4-((1r,3S)-3-((4-(3-(3-amino-6-(2-hydroxyphenyl)pyridazin-4-yl)-3,8-diazabicyclo[3.2.1]octan-8-yl)pyridin-2-yl)oxy)cyclobutoxy)piperidin-1-yl)ethoxy)isoxazol-5-yl)-3-methylbutanoyl)-4-hydroxypyrrolidine-2-carboxamido)-4-(4-(4-methylthiazol-5-yl)phenyl)butyl)phosphonic acid] |  |  | > 30 nM |
| Cc1ncsc1-c1ccc(C(CCCP(=O)(O)O)NC(=O)[C@@H]2C[C@@H](O)CN2C(=O)[C@@H](c2cc(OCCN3CCC(O[C@H]4C[C@H](Oc5cc(N6C7CCC6CN(c6cc(-c8ccccc8O)nnc6N)C7)ccn5)C4)CC3)no2)C(C)C)cc1 (stereo partly drawn) [compound 702, (4-((2S,4R)-1-((2R)-2-(3-(2-(4-((1r,3R)-3-((4-(3-(3-amino-6-(2-hydroxyphenyl)pyridazin-4-yl)-3,8-diazabicyclo[3.2.1]octan-8-yl)pyridin-2-yl)oxy)cyclobutoxy)piperidin-1-yl)ethoxy)isoxazol-5-yl)-3-methylbutanoyl)-4-hydroxypyrrolidine-2-carboxamido)-4-(4-(4-methylthiazol-5-yl)phenyl)butyl)phosphonic acid] |  |  | > 30 nM |
| Cc1ncsc1-c1ccc([C@H](C)NC(=O)[C@@H]2C[C@@H](O)CN2C(=O)[C@H](c2cc(N3CCN(C(C)[C@H]4C[C@H](Oc5cc(N6C7CCC6CN(c6cc(-c8ccccc8O)nnc6N)C7)ccn5)C4)CC3)no2)C(C)C)cc1 (stereo partly drawn) [compound 703, (2S,4R)-1-((2S)-2-(3-(4-((1S)-1-((1r,3S)-3-((4-(3-(3-amino-6-(2-hydroxyphenyl)pyridazin-4-yl)-3,8-diazabicyclo[3.2.1]octan-8-yl)pyridin-2-yl)oxy)cyclobutyl)ethyl)piperazin-1-yl)isoxazol-5-yl)-3-methylbutanoyl)-4-hydroxy-N-((S)-1-(4-(4-methylthiazol-5-yl)phenyl)ethyl)pyrrolidine-2-carboxamide] | 2.5 to 10 nM | > 75% |  |
| Cc1ncsc1-c1ccc([C@H](C)NC(=O)[C@@H]2C[C@@H](O)CN2C(=O)[C@@H](c2cc(N3CCN(C(C)[C@H]4C[C@H](Oc5cc(N6C7CCC6CN(c6cc(-c8ccccc8O)nnc6N)C7)ccn5)C4)CC3)no2)C(C)C)cc1 (stereo partly drawn) [compound 704, (2S,4R)-1-((2R)-2-(3-(4-((1S)-1-((1r,3S)-3-((4-(3-(3-amino-6-(2-hydroxyphenyl)pyridazin-4-yl)-3,8-diazabicyclo[3.2.1]octan-8-yl)pyridin-2-yl)oxy)cyclobutyl)ethyl)piperazin-1-yl)isoxazol-5-yl)-3-methylbutanoyl)-4-hydroxy-N-((S)-1-(4-(4-methylthiazol-5-yl)phenyl)ethyl)pyrrolidine-2-carboxamide] | < 2.5 nM | > 75% |  |
| Cc1ncsc1-c1ccc([C@H](C)NC(=O)[C@@H]2C[C@@H](O)CN2C(=O)[C@@H](c2cc(N3CCC(CN4CCN(C[C@H]5C[C@H](Oc6cc(N7C8CCC7CN(c7cc(-c9ccccc9O)nnc7N)C8)ccn6)C5)C(C)C4C)CC3)no2)C(C)C)cc1 (stereo partly drawn) [compound 705, (2S,4R)-1-((2R)-2-(3-(4-((4-(((1r,3r)-3-((4-(3-(3-amino-6-(2-hydroxyphenyl)pyridazin-4-yl)-3,8-diazabicyclo[3.2.1]octan-8-yl)pyridin-2-yl)oxy)cyclobutyl)methyl)-2,3-dimethylpiperazin-1-yl)methyl)piperidin-1-yl)isoxazol-5-yl)-3-methylbutanoyl)-4-hydroxy-N-((S)-1-(4-(4-methylthiazol-5-yl)phenyl)ethyl)pyrrolidine-2-carboxamide] | < 2.5 nM | > 75% |  |
| Cc1ncsc1-c1ccc([C@H](C)NC(=O)[C@@H]2C[C@@H](O)CN2C(=O)[C@@H](c2cc(N3CCC(CN4CCC(O[C@H]5C[C@H](C#CC(C)N6CCOC7(CCN(c8cc(-c9ccccc9O)nnc8N)CC7)C6)C5)CC4)CC3)no2)C(C)C)cc1 (stereo partly drawn) [compound 707, (2S,4R)-1-((2R)-2-(3-(4-((4-((1r,3r)-3-(3-(9-(3-amino-6-(2-hydroxyphenyl)pyridazin-4-yl)-1-oxa-4,9-diazaspiro[5.5]undecan-4-yl)but-1-yn-1-yl)cyclobutoxy)piperidin-1-yl)methyl)piperidin-1-yl)isoxazol-5-yl)-3-methylbutanoyl)-4-hydroxy-N-((S)-1-(4-(4-methylthiazol-5-yl)phenyl)ethyl)pyrrolidine-2-carboxamide] | < 2.5 nM | > 75% |  |
| Cc1ncsc1-c1ccc([C@H](C)NC(=O)[C@@H]2C[C@@H](O)CN2C(=O)[C@@H](c2cc(N3CCC(CN4CCC(O[C@H]5C[C@H](Oc6cc(N7C8CCC7CN(c7cc(-c9ccccc9O)nnc7N)C8)ccn6)C5)CC4)CC3)no2)C(C)C)c(N)c1 [compound 708, (2S,4R)-N-((S)-1-(2-amino-4-(4-methylthiazol-5-yl)phenyl)ethyl)-1-((2R)-2-(3-(4-((4-((1r,3r)-3-((4-(3-(3-amino-6-(2-hydroxyphenyl)pyridazin-4-yl)-3,8-diazabicyclo[3.2.1]octan-8-yl)pyridin-2-yl)oxy)cyclobutoxy)piperidin-1-yl)methyl)piperidin-1-yl)isoxazol-5-yl)-3-methylbutanoyl)-4-hydroxypyrrolidine-2-carboxamide] | < 2.5 nM | > 75% |  |
| CC(C)[C@@H](C(=O)N1C[C@H](O)C[C@H]1C(=O)N[C@@H](C)c1ccc(C2(F)CC2)cc1)c1cc(N2CCC(CN3CCC(O[C@H]4C[C@H](Oc5cc(N6C7CCC6CN(c6cc(-c8ccccc8O)nnc6N)C7)ccn5)C4)CC3)CC2)no1 [compound 713, (2S,4R)-1-((2R)-2-(3-(4-((4-((1r,3r)-3-((4-(3-(3-amino-6-(2-hydroxyphenyl)pyridazin-4-yl)-3,8-diazabicyclo[3.2.1]octan-8-yl)pyridin-2-yl)oxy)cyclobutoxy)piperidin-1-yl)methyl)piperidin-1-yl)isoxazol-5-yl)-3-methylbutanoyl)-N-((S)-1-(4-(1-fluorocyclopropyl)phenyl)ethyl)-4-hydroxypyrrolidine-2-carboxamide] | 2.5 to 10 nM | > 75% |  |
| Cc1ncsc1-c1ccc([C@H](C)NC(=O)[C@@H]2C[C@@H](O)CN2C(=O)[C@H](c2cc(N3CCN(C(C)(C)C4CCN(C[C@H]5C[C@H](Oc6cc(N7C8CCC7CN(c7cc(-c9ccccc9O)nnc7N)C8)ccn6)C5)CC4)CC3)no2)C(C)C)cc1 [compound 714, (2S,4R)-1-((2S)-2-(3-(4-(2-(1-(((1r,3r)-3-((4-(3-(3-amino-6-(2-hydroxyphenyl)pyridazin-4-yl)-3,8-diazabicyclo[3.2.1]octan-8-yl)pyridin-2-yl)oxy)cyclobutyl)methyl)piperidin-4-yl)propan-2-yl)piperazin-1-yl)isoxazol-5-yl)-3-methylbutanoyl)-4-hydroxy-N-((S)-1-(4-(4-methylthiazol-5-yl)phenyl)ethyl) pyrrolidine-2-carboxamide] | > 30 nM |  |  |

From patent publication US12539292B2, “BRM targeting compounds and associated methods of use” (Arvinas Operations, Inc., priority 2018, dated 2026)
